{
  "source": "patent US10030047B2",
  "about": "(Hoffmann-La Roche Inc., priority 2015, dated 2018)",
  "data": [
    {"system": "A. baumannii strain ATCC19606", "test": "Minimum inhibitory concentration (MIC) determination, microbroth dilution (CLSI)", "type": "cell-based", "conditions": "Acinetobacter baumannii; A. baumannii ATCC19606; CAMHB; read after 20 hours; >=80% growth inhibition; read-out: ATCC19606 MIC", "how_it_was_run": "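CLSI broth microdilution in cation-adjusted Mueller Hinton broth with twofold compound dilutions and ~5×10^5 CFU/ml inoculum, incubated at 35±2 °C. MIC read after 20 h as lowest concentration inhibiting ≥80% of growth, by eye and OD 600 nm.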", "units": {"MIC": "µg/mL"}, "values": [
      {"smiles": "CN1C(=O)[C@H](CCCCN)NC(=O)[C@H](CNC(N)=O)NCc2cccnc2Sc2c(Cl)cc(Cl)cc2CNC(=O)[C@@H]1Cc1c[nH]c2ccccc12", "note": "[Example 180, [(11S,14S,17S)-14-(4-Amino-butyl)-23,25-dichloro-17-(1H-indol-3-ylmethyl)-16-methyl-12,15,18-trioxo-2-thia-4,10,13,16,19-pentaaza-tricyclo[19.4.0.0*3,8*]pentacosa-1(25),3(8),4,6,21,23-hexaen-11-ylmethyl]-urea]", "MIC": 1},
      {"smiles": "Cc1[nH]c2ccccc2c1C[C@H]1C(=O)NCc2cc(-c3ccncc3)cc(Cl)c2Sc2ncccc2CN[C@@H](CCCN)C(=O)N[C@@H](CCCCN)C(=O)N1C", "note": "[Example 181, (11S,14S,17S)-14-(4-Amino-butyl)-11-(3-amino-propyl)-25-chloro-16-methyl-17-(2-methyl-1H-indol-3-ylmethyl)-23-pyridin-4-yl-2-thia-4,10,13,16,19-pentaaza-tricyclo[19.4.0.0*3,8*]pentacosa-1(25),3(8),4,6,21,23-hexaene-12,15,18-trione]", "MIC": 0.25},
      {"smiles": "Cc1[nH]c2ccccc2c1C[C@H]1C(=O)NCc2cc(-c3ccnc(Cl)c3)cc(Cl)c2Sc2ncccc2CN[C@@H](CCCN)C(=O)N[C@@H](CCCCN)C(=O)N1C", "note": "[Example 182, (11S,14S,17S)-14-(4-Amino-butyl)-11-(3-amino-propyl)-25-chloro-23-(2-chloro-pyridin-4-yl)-16-methyl-17-(2-methyl-1H-indol-3-ylmethyl)-2-thia-4,10,13,16,19-pentaaza-tricyclo[19.4.0.0*3,8*]pentacosa-1(25),3(8),4,6,21,23-hexaene-12,15,18-trione]", "MIC": 0.5},
      {"smiles": "Cc1[nH]c2ccccc2c1C[C@H]1C(=O)NCc2cc(-c3ccnc(F)c3)cc(Cl)c2Sc2ncccc2CN[C@@H](CCCN)C(=O)N[C@@H](CCCCN)C(=O)N1C", "note": "[Example 183, (11S,14S,17S)-14-(4-Amino-butyl)-11-(3-amino-propyl)-25-chloro-23-(2-fluoro-pyridin-4-yl)-16-methyl-17-(2-methyl-1H-indol-3-ylmethyl)-2-thia-4,10,13,16,19-pentaaza-tricyclo[19.4.0.0*3,8*]pentacosa-1(25),3(8),4,6,21,23-hexaene-12,15,18-trione]", "MIC": 0.25},
      {"smiles": "CN1C(=O)[C@H](CCCCN)NC(=O)[C@H](CCC(N)=O)NCc2cccnc2Sc2c(Cl)cc(-c3ccccc3)cc2CNC(=O)[C@@H]1Cc1c[nH]c2ccccc12", "note": "[Example 184, 3-[(11S,14S,17S)-14-(4-Amino-butyl)-25-chloro-17-(1H-indol-3-ylmethyl)-16-methyl-12,15,18-trioxo-23-phenyl-2-thia-4,10,13,16,19-pentaaza-tricyclo[19.4.0.0*3,8*]pentacosa-1(25),3(8),4,6,21,23-hexaen-11-yl]-propionamide]", "MIC": 2},
      {"smiles": "CN1C(=O)[C@H](CCCCN)NC(=O)[C@H](CCCN)NCc2cccnc2Sc2c(Cl)cc(C#N)cc2CNC(=O)[C@@H]1Cc1c[nH]c2ccccc12", "note": "[Example 185, (11S,14S,17S)-14-(4-Amino-butyl)-11-(3-amino-propyl)-25-chloro-17-(1H-indol-3-ylmethyl)-16-methyl-12,15,18-trioxo-2-thia-4,10,13,16,19-pentaaza-tricyclo[19.4.0.0*3,8*]pentacosa-1(25),3(8),4,6,21,23-hexaene-23-carbonitrile]", "MIC": 0.5},
      {"smiles": "Cc1noc(C)c1-c1cc(Cl)c2c(c1)CNC(=O)[C@H](Cc1c[nH]c3ccccc13)N(C)C(=O)[C@H](CCCCN)NC(=O)[C@H](CCCN)NCc1cccnc1S2", "note": "[Example 186, (11S,14S,17S)-14-(4-Amino-butyl)-11-(3-amino-propyl)-25-chloro-23-(3,5-dimethyl-isoxazol-4-yl)-17-(1H-indol-3-ylmethyl)-16-methyl-2-thia-4,10,13,16,19-pentaaza-tricyclo[19.4.0.0*3,8*]pentacosa-1(25),3(8),4,6,21,23-hexaene-12,15,18-trione]", "MIC": 0.5},
      {"smiles": "CN1C(=O)[C@H](CCCCN)NC(=O)[C@H](CCCN)NCc2cccnc2Sc2c(Cl)cc(N3CC4CC3CO4)cc2CNC(=O)[C@@H]1Cc1c[nH]c2ccccc12", "note": "(stereo partly drawn) [Example 187, (11S,14S,17S)-14-(4-Amino-butyl)-11-(3-amino-propyl)-25-chloro-17-(1H-indol-3-ylmethyl)-16-methyl-23-(2-oxa-5-aza-bicyclo[2.2.1]hept-5-yl)-2-thia-4,10,13,16,19-pentaaza-tricyclo[19.4.0.0*3,8*]pentacosa-1(25),3(8),4,6,21,23-hexaene-12,15,18-trione]", "MIC": 2},
      {"smiles": "CN1C(=O)[C@H](CCCCN)NC(=O)[C@H](CCCN)NCc2cccnc2Sc2c(Cl)cc(C#CCOCc3ccccc3)cc2CNC(=O)[C@@H]1Cc1c[nH]c2ccccc12", "note": "[Example 188, (11S,14S,17S)-14-(4-Amino-butyl)-11-(3-amino-propyl)-23-(3-benzyloxy-prop-1-ynyl)-25-chloro-17-(1H-indol-3-ylmethyl)-16-methyl-2-thia-4,10,13,16,19-pentaaza-tricyclo[19.4.0.0*3,8*]pentacosa-1(25),3(8),4,6,21,23-hexaene-12,15,18-trione]", "MIC": 2},
      {"smiles": "CN1C(=O)[C@H](CCCCN)NC(=O)[C@H](CCCN)NCc2ccccc2Sc2c(-c3ccccc3)ncc(Cl)c2CNC(=O)[C@@H]1Cc1c[nH]c2ccccc12", "note": "[Example 189]", "MIC": 4},
      {"smiles": "CN1C(=O)[C@H](CCCCN)NC(=O)[C@H](CCCN)NCc2cccnc2Sc2c(Cl)ccc(-c3ccncc3)c2CNC(=O)[C@@H]1Cc1c[nH]c2ccccc12", "note": "[Example 190, (11S,14S,17S)-14-(4-Amino-butyl)-11-(3-amino-propyl)-25-chloro-17-(1H-indol-3-ylmethyl)-16-methyl-22-pyridin-4-yl-2-thia-4,10,13,16,19-pentaaza-tricyclo[19.4.0.0*3,8*]pentacosa-1(21),3,5,7,22,24-hexaene-12,15,18-trione]", "MIC": 0.12},
      {"smiles": "CN1C(=O)[C@H](CCCCN)NC(=O)[C@H](CCCN)NCc2cccnc2Sc2c(Cl)ccc(-c3cccnc3)c2CNC(=O)[C@@H]1Cc1c[nH]c2ccccc12", "note": "[Example 191, (11S,14S,17S)-14-(4-Amino-butyl)-11-(3-amino-propyl)-25-chloro-17-(1H-indol-3-ylmethyl)-16-methyl-22-pyridin-3-yl-2-thia-4,10,13,16,19-pentaaza-tricyclo[19.4.0.0*3,8*]pentacosa-1(25),3(8),4,6,21,23-hexaene-12,15,18-trione]", "MIC": 0.12},
      {"smiles": "CN1C(=O)[C@H](CCCCN)NC(=O)[C@H](CCCN)NCc2ccccc2Sc2nc(N3CCOCC3)ccc2CNC(=O)[C@@H]1Cc1c[nH]c2ccccc12", "note": "[Example 192]", "MIC": 64},
      {"smiles": "CN1C(=O)[C@H](CCCCN)NC(=O)[C@H](CCCN)NCc2ccccc2Sc2ccnc(N3CCOCC3)c2CNC(=O)[C@@H]1Cc1c[nH]c2ccccc12", "note": "[Example 193]", "MIC": 64},
      {"smiles": "Cc1[nH]c2ccccc2c1C[C@H]1C(=O)NCc2cc(-c3cncc(S(C)(=O)=O)c3)cc(Cl)c2Sc2ncccc2CN[C@@H](CCCN)C(=O)N[C@@H](CCCCN)C(=O)N1C", "note": "[Example 199, (11S,14S,17S)-14-(4-Amino-butyl)-11-(3-amino-propyl)-25-chloro-23-(5-methanesulfonyl-pyridin-3-yl)-16-methyl-17-(2-methyl-1H-indol-3-ylmethyl)-2-thia-4,10,13,16,19-pentaaza-tricyclo[19.4.0.0*3,8*]pentacosa-1(25),3(8),4,6,21,23-hexaene-12,15,18-trione]", "MIC": 1},
      {"smiles": "Cc1[nH]c2ccccc2c1C[C@H]1C(=O)NCc2c(-c3cccnc3)ccc(Cl)c2Sc2ncccc2CN[C@@H](CCCN)C(=O)N[C@@H](CCCCN)C(=O)N1C", "note": "[Example 200, (11S,14S,17S)-14-(4-Amino-butyl)-11-(3-amino-propyl)-25-chloro-16-methyl-17-(2-methyl-1H-indol-3-ylmethyl)-22-pyridin-3-yl-2-thia-4,10,13,16,19-pentaaza-tricyclo[19.4.0.0*3,8*]pentacosa-1(25),3(8),4,6,21,23-hexaene-12,15,18-trione]", "MIC": 0.12},
      {"smiles": "Cc1[nH]c2ccccc2c1C[C@H]1C(=O)NCc2c(-c3ccncc3)ccc(Cl)c2Sc2ncccc2CN[C@@H](CCCN)C(=O)N[C@@H](CCCCN)C(=O)N1C", "note": "[Example 202, (11S,14S,17S)-14-(4-Amino-butyl)-11-(3-amino-propyl)-25-chloro-16-methyl-17-(2-methyl-1H-indol-3-ylmethyl)-22-pyridin-4-yl-2-thia-4,10,13,16,19-pentaaza-tricyclo[19.4.0.0*3,8*]pentacosa-1(25),3(8),4,6,21,23-hexaene-12,15,18-trione]", "MIC": 0.12},
      {"smiles": "Cc1[nH]c2ccccc2c1C[C@H]1C(=O)NCc2cc(-c3ccnc(N4CCN(C)CC4)c3)cc(Cl)c2Sc2ncccc2CN[C@@H](CCCN)C(=O)N[C@@H](CCCCN)C(=O)N1C", "note": "[Example 203, (7S,10S,13S)— 10-(4-aminobutyl)-7-(3-aminopropyl)-20-chloro-6,7,9,10,12,13,15,16-octahydro-12-methyl-13-[(2-methyl-1H-indol-3-yl)methyl]-18-[2-(4-methyl-1-piperazinyl)-4-pyridinyl]pyrido[2,3-b][1,5,8,11,14]benzothiatetraazacycloheptadecine-8,11,14(5H)-trione]", "MIC": 1},
      {"smiles": "CN1C(=O)[C@H](CCCCN)NC(=O)[C@H](CCCN)NCc2cccnc2Sc2cnc(N3CCOCC3)cc2CNC(=O)[C@@H]1Cc1c[nH]c2ccccc12", "note": "[Example 204, (7S,10S,13S)-13-((1H-Indol-3-yl)methyl)-10-(4-aminobutyl)-7-(3-aminopropyl)-12-methyl-18-morpholino-6,7,9,10,12,13,15,16-octahydrodipyrido[2,3-b:4′,3′-p][1,5,8,11,14]thiatetraazacycloheptadecine-8,11,14(5H)-trione]", "MIC": 64},
      {"smiles": "COc1cc(-c2cc3c(cn2)Sc2ncccc2CN[C@@H](CCCN)C(=O)N[C@@H](CCCCN)C(=O)N(C)[C@@H](Cc2c[nH]c4ccccc24)C(=O)NC3)ccn1", "note": "[Example 205, (7S,10S,13S)-13-((1H-Indol-3-yl)methyl)-10-(4-aminobutyl)-7-(3-aminopropyl)-18-(2-methoxypyridin-4-yl)-12-methyl-6,7,9,10,12,13,15,16-octahydrodipyrido[2,3-b:4′,3′-p][1,5,8,11,14]thiatetraazacycloheptadecine-8,11,14(5H)-trione]", "MIC": 16}
    ]}
  ]
}
